Paper PMC12030033, “Design and Synthesis of Bis-Chalcones as Curcumin Simplified Analogs and Assessment of Their Antiproliferative Activities Against Human Lung Cancer Cells and Trypanosoma cruzi Amastigotes” (Pharmaceuticals, 2025)
Where two headings read alike, the source gives them in different places.

Legend:
[1] = test system: peripheral blood mononuclear cells (PBMC); conditions: human, 72 h
Procedure: (§2) Cells were treated with increasing concentrations of the hybrids in triplicates, pre-diluted in DMEM + 2% FBS, and incubated for 120 h. The toxic effect of the molecules was also evaluated on human lung cancer cell lines (A549 and H460), as well as on PBMC. […] In all experiments, untreated controls, vehicle (0.2% v/v DMSO), and blanks (no added cells) were included. […] Then, 20 µL of 3.0 mM MTT saline was added and incubated for another 1.5 h. The supernatant was removed, and the MTT formazan crystals were dissolved by adding 120 µL/well of DMSO. After incubation for 1.5 h to dissolve the MTT crystals away from light and at 37 °C, the absorbance was measured at λ = 570 nm using a plate reader.

[2] = test system: T. cruzi amastigotes (Tulahuen C2C4-LacZ); assay: Trypanocidal activity against intracellular amastigotes (CPRG, beta-galactosidase); format: cell-based, Trypanosoma cruzi; conditions: for Selective Index: LLC-MK2 IC50 vs T. cruzi amastigote IC50; for IC50: 120 h, in LLC-MK2 host cells
Procedure: The antiparasitic activity assays used the Tulahuen C2C4-LacZ strain of the Trypanosoma cruzi parasite, being evaluated in the amastigote forms. […] Trypomastigote forms were collected from the culture supernatant between the 5th and 10th day after infection and separated from non-adherent cells by differential centrifugation. Epimastigote evolutionary form parasites were cultivated in LIT medium (Liver Infusion Tryptose), supplemented with hemin (25 mg/L) + 10% FBS, and incubated at 28 °C, performing successive passages every 6–7 days.
Non-internalized parasites were removed by three successive washes with PBS, followed by treatment with increasing concentrations of the hybrids (0.64–100 µM) in triplicates, pre-diluted in DMEM + 2% FBS. Untreated vehicle (0.2% v/v DMSO) and blank (no added parasites) controls were included in the experiment. Increasing concentrations of Benznidazole were used as the positive control. After incubation for 5 days (120 h), 30 µL of 0.5 mM chlorophenol red substrate β-galactopyranoside (CPRG) in PBS was added with 0.9% v/v of Igepal CA-630.

A549 cells [3] = assay: Antiproliferative activity (MTT) against A549 tumor cell line; format: cell-based, human; conditions: for IC50: read-out: A549 IC50; for Selective Index SI A549: PBMC LD50 vs A549 IC50
Procedure: as §2

H460 cells = assay: Antiproliferative activity (MTT) against H460 tumor cell line; format: cell-based, human; conditions: for IC50: read-out: H460 IC50; for Selective Index SI H460: PBMC LD50 vs H460 IC50; for Fold increase in potency compared with analog 7, H460: IC50 ratio vs 7
Procedure: as §2

[4] = Cytotoxicity (MTT) on LLC-MK2 host cells; format: cell-based; conditions: rhesus monkey
Source text: (§1) Mammalian cells were used to evaluate the cytotoxicity of the tested compounds. […] Cells were dissociated from the monolayer by treatment with a solution containing 0.25% w/v trypsin and 0.04% EDTA.

A549 cells [5] = assay: Cell cycle analysis by PI flow cytometry; format: cell-based, human; conditions: A549, 72 h treatment at IC50; for Cells in G2-M phase: control approximately 20%
Procedure: The cell cycle phase was determined using a PI solution, according to a method described elsewhere. […] Cell cycle determination was performed on a FACScalibur flow cytometer (BD Biosciences, San Diego, CA, USA). Post-analysis of the cell cycle assay was performed using Summit software (version 4.3, Dako Colorado, Fort Collins, CO, USA).

A549 cells [6] = assay: Cell death analysis by Annexin V/PI flow cytometry; format: cell-based, human; conditions: A549, 48 h at IC50; control 2.38%
Procedure: Cell death analysis was performed by using an Annexin V/PI double staining kit (PharMingen, San Diego, CA, USA) as previously described. For the assay, the cells were plated at a density of 1 × 10^6 cells/well in six-well plates, 2 mL/well. […] After incubating for 15 min at room temperature in the dark, 400 µL of binding buffer was added. The two-color flow cytometry analysis was performed on a FACSCalibur device (Becton Dickinson, Franklin Lakes, NJ, USA). Post-analysis was performed in Summit software (version 4.3, Dako Colorado, Fort Collins, CO, USA).

[7] = test system: peripheral blood mononuclear cells (PBMC); assay: Cytotoxicity (MTT) on peripheral blood mononuclear cells; conditions: for PBMC LD50: 72 h, MTT
Procedure: as §2

LLC-MK2 (host cells) = assay: Cytotoxicity (MTT) on LLC-MK2 host cells; format: cell-based; conditions: 120 h, MTT
Source text: as §1

[8] = Stability in PBS by HPLC-DAD; format: physicochemical; conditions: PBS pH 7.4, 37 °C; for Chemical stability in PBS: 24 h incubation
Procedure: The analytical conditions were as follows: Column Restek, Allure Organic Acid C18, 150 mm × 4.6 mm × 5 µm (Bellefonte, PA, USA); mobile phase, 40% water with 0.1% formic acid, 60% acetonitrile with 0.1% formic acid, 1.0 mL/min, isocratic elution; injection volume, 5 µL; detectors, PDA (200–800 nm). […] After incubation, 100 µL of reaction mixtures were added to 900 µL of HPLC mobile phase and injected.

[9] = test system: T. cruzi epimastigotes (Y strain); set-up: method as in PMID 27658305; conditions: read-out: IC50 against epimastigotes (Y strain); cited from earlier work
[10] = test system: T. cruzi (Y strain) amastigotes; set-up: method as in PMID 27658305; conditions: cited from earlier work
[11] = Homo sapiens, NCI-H460, 72 h, MTT

Row | Molecule | PBMC LD50 [1] | Selective Index [2] | IC50 ([2]; Trypanosoma cruzi, TULAHUEN) | IC50 (A549 cells [3]; Homo sapiens, A549, 72 h, MTT) | Selective Index SI A549 (A549 cells [3]) | IC50 (H460 cells; [11]) | Selective Index SI H460 (H460 cells) | IC50 at 120 h [4] | other results
1 | COc1cc(/C=C2\CSC/C(=C\c3ccc(O)c(OC)c3)C2=O)ccc1O [Compound 10, (3Z,5Z)-3,5-Bis(4-hydroxy-3-methoxybenzylidene)dihydro-2H-thiopyran-4(3H)-one] | 186.4 ± 35.15 µM | 2.20 | 5.87 ± 2.89 µM | 37 ± 8.28 µM | 5.04 | 12.8 ± 3.94 µM | 14.56 | 13 ± 2.36 µM | –
2 | O=C(Cn1ccnc1[N+](=O)[O-])NCc1ccccc1 [Benznidazole, reference compound] | – | > 133 | 1.5 ± 0.33 µM | – | – | – | – | > 200 µM | –
3 | COc1cc(/C=C2\CS(=O)(=O)C/C(=C\c3ccc(O)c(OC)c3)C2=O)ccc1O [Compound 12, (3Z,5Z)-3,5-Bis(4-hydroxy-3-methoxybenzylidene)dihydro-2H-thiopyran-4(3H)-one 1,1-dioxide] | 173.0 ± 37.4 µM | 1.56 | 7.33 ± 0.43 µM | 5.89 ± 2.81 µM | 29.37 | 0.27 ± 0.2 µM | 640.74 | 11.5 ± 3.71 µM | Cells in sub-G0 phase (A549 cells [5]): 30%; Cells in G2-M phase (A549 cells [5]): 60%; Double-positive cells for annexin and PI (late apoptosis) (A549 cells [6]): 14.98%
4 | (1E,6E)-1-(4-Hydroxy-3-methoxyphenyl)-7-(4-hydroxyphenyl)hepta-1,6-dien-3,5-dione [Compound 2, reference compound] | – | 0.72 | – | – | 1.96 | – | 5.76 | – | IC50 [2]: 31.3 ± 0.77 µM; PBMC LD50 [7]: 144.3 ± 12.30 µM; IC50 (A549 cells [3]; 72 h, MTT): 73.3 ± 6.98 µM; IC50 (H460 cells; 72 h, MTT): 25.1 ± 5.55 µM; IC50 (LLC-MK2 (host cells)): 22.7 ± 3.71 µM
5 | COc1cc(/C=C2\C[S+]([O-])C/C(=C\c3ccc(O)c(OC)c3)C2=O)ccc1O (stereo not drawn) [Compound 11, (3Z,5Z)-3,5-Bis(4-hydroxy-3-methoxybenzylidene)dihydro-2H-thiopyran-4(3H)-one 1-oxide] | >200 µM | 1.70 | 16.7 ± 4.67 µM | 7.74 ± 1.65 µM | – | 1.02 ± 0.29 µM | > 196.07 | 28.5 ± 5.17 µM | –
6 | COc1cc(/C=C/C(=O)/C=C/c2ccc(O)c(OC)c2)ccc1O [Compound 4, (1E,4E)-1,5-Bis(4-hydroxy-3-methoxyphenyl)penta-1,4-dien-3-one] | – | – | 3.92 ± 0.33 µM | – | – | – | > 19.60 | < 6.4 µM | PBMC LD50 [7]: >200 µM; Toxic effects against peripheral blood mononuclear cells ([7]; higher concentration tested): did not present toxic effects; Chemical stability in PBS [8]: remained untouched; IC50 (A549 cells [3]; Homo sapiens, A549, 72 h): 18.1 ± 4.72 µM; IC50 (H460 cells; Homo sapiens, NCI-H460, 72 h): 10.2 ± 3.76 µM
7 | N.N.[Cl][Pt][Cl] [Cisplatin, reference compound] | – | – | – | – | – | – | – | – | IC50 (A549 cells [3]; 72 h, MTT): 6.05 ± 0.58 µM; IC50 (H460 cells; 72 h, MTT): 2.96 ± 0.44 µM
8 | COc1cc(/C=C2\CCC/C(=C\c3ccc(O)c(OC)c3)C2=O)ccc1O [Compound 7, 2,6-Bis((E)-4-hydroxy-3-methoxybenzylidene)cyclohexan-1-one] | >200 µM | – | 4.91 ± 0.4 µM | 76.2 ± 9.49 µM | – | 42.6 ± 3.94 µM | – | < 6.4 µM | –
9 | COc1cc(/C=C2\CN(C)C/C(=C\c3ccc(O)c(OC)c3)C2=O)ccc1O [Compound 9, (3E,5E)-3,5-Bis(4-hydroxy-3-methoxybenzylidene)-1-methylpiperidin-4-one] | 73.25 ± 5.87 µM | 2.95 | 9.6 ± 1.61 µM | 61.1 ± 6.2 µM | 1.19 | 9.89 ± 3.03 µM | 7.40 | 28.4 ± 3.8 µM | Fold increase in potency compared with analog 7, H460 (H460 cells): 4.3 fold
10 | COc1cc(/C=C/C(=O)c2ccc(O)c(OC)c2)ccc1O [Compound 5, (E)-1,3-Bis(4-hydroxy-3-methoxyphenyl)prop-2-en-1-one] | 119.1 ± 16.35 µM | 0.55 | 15.6 ± 4.08 µM | 58 ± 6.75 µM | 2.05 | 1.74 ± 0.28 µM | 68.44 | – | IC50 at 120 h ([4]; 120 h, MTT, read-out: LLC-MK2 (Host Cells) 120 h IC50): 8.72 ± 2.42 µM
11 | O=C(/C=C/c1ccc(O)cc1)CC(=O)/C=C/c1ccc(O)cc1 [Compound 3, (1E,6E)-1,7-Bis(4-hydroxyphenyl)hepta-1,6-diene-3,5-dione, reference compound] | 134.1 ± 13.30 µM | 1.11 | 17.6 ± 0.26 µM | 46.5 ± 3.45 µM | 2.88 | 27.1 ± 4.35 µM | – | 19.7 ± 0.87 µM | –
12 | COc1cc(/C=C/C(=O)CC(=O)/C=C/c2ccc(O)c(OC)c2)ccc1O [Compound 1, (1E,6E)-1,7-Bis(4-hydroxy-3-methoxyphenyl)hepta-1,6-dien-3,5-dione, reference compound] | 146.5 ± 12.08 µM | – | 17.8 ± 6.88 µM | – | – | – | – | 25.7 ± 6.05 µM | Fraction decomposed in PBS [8]: approximately 70%; IC50 (A549 cells [3]; Homo sapiens, A549, 72 h): 56.5 ± 3.75 µM; IC50 (H460 cells; Homo sapiens, NCI-H460, 72 h): 37.9 ± 8.81 µM; Cells in G2-M phase (A549 cells [5]): 80%; IC50 [9]: 10.1 µM; Amastigote release from infected mouse macrophages [10]: inhibited amastigote release
13 | COc1cc(/C=C2\CC/C(=C\c3ccc(O)c(OC)c3)C2=O)ccc1O [Compound 6, 2,5-Bis((E)-4-hydroxy-3-methoxybenzylidene)cyclopentan-1-one] | 141.1 ± 18.53 µM | – | 8.35 ± 2.35 µM | 71.3 ± 1.53 µM | 1.97 | 36.1 ± 7.14 µM | 3.90 | < 6.4 µM | –
14 | COc1cc(/C=C2\COC/C(=C\c3ccc(O)c(OC)c3)C2=O)ccc1O [Compound 8, (3E,5E)-3,5-Bis(4-hydroxy-3-methoxybenzylidene)tetrahydro-4H-pyran-4-one] | 131.8 ± 14.52 µM | 1.60 | 12.8 ± 5.17 µM | 8.1 ± 1.27 µM | 16.27 | 1.46 ± 0.28 µM | – | 20.6 ± 4.65 µM | Chemical stability in PBS [8]: remained untouched; Fold increase in potency compared with parent derivative 7, A549 (A549 cells [3]; IC50 ratio vs 7): ~10 fold; Fold increase in potency compared with analog 7, H460 (H460 cells): ~30 fold
